According to patent US20180188224A1, “METHOD FOR CONSTRUCTING A SENSORY SPACE” (CENTRE SCIENTIFIQUE ET TECHNIQUE DU BATIMENT (CSTB), priority 2015, published 2018):

Tests used:
[1] = system: four non-smoking volunteers (2 men and 2 women); experiment: Taste intensity score, 11-point scale (0 not intense to 10 very intense); type: in vivo, human; conditions: averaged over 4 subjects, 6 repetitions each
Method: (§1) In this test, four non-smoking volunteers (2 men and 2 women) were chosen from 12 people for their performance in taste recognition. Their mean age was 32 years, ranging from 24 to 40 years. […] These four people were trained for several months to recognize and detect the four basic tastes, and also regarding the procedures of sensory and physiological analysis.
(§2) The four basic tastes (sweet, salty, sour and bitter) were used. The solutions were prepared with citric acid for the sour taste, caffeine for the bitter taste, sodium chloride for the salty taste and sucrose for the sweet taste (all purchased from Sigma Aldrich, France) in Evian water. Evian water was also used as control and blank. Each taste was prepared with the four concentrations mentioned in table 1.
(§3) The amount of solution to be tested was standardized at 10 ml. In order to impregnate the whole of the oral cavity, the subjects kept the solution in their mouth for 5 s before swallowing it.
(§4) The sessions were individual and the subjects were asked not to eat or drink anything for at least 1 h before the test. They arrived 15 min before the start of the session in order to acclimatize to the environmental conditions, in particular the temperature of the room (kept constant at 23° C.) and to be resting seated on a comfortable chair. The 16 solutions for testing and two additional samples of water containing solely Evian water, added to the references, were presented monadically following a test order determined from a “balanced incomplete block design”. During a session, 9 samples out of 18 were presented to minimize sensory fatigue. In addition, a sample of Evian was always tested as a “blank” sample in order to avoid the first-order effect (Lawless, H. T. & Heymann, H., 2010, Sensory evaluation of food: Principles and practices. Springer, New York) and was excluded from the analysis. A light signal was sent to give the instruction to test the sample. When the disturbance to the nervous system returned to its baseline level (after approximately 1 min), a second light signal indicated to the subjects that they should complete a questionnaire regarding the stimulus tested previously. The first part of the questionnaire was linked to the identification of the taste (i.e. determining the quality of the taste); the subjects had to choose between five labels: sweet, salty, sour, bitter or neutral. They then had to assign a taste intensity score on an 11-point scale (from 0 “not intense” (i.e. taste of Evian only) to 10 “very intense”) and finally to give a hedonic score on an 11-point scale (from 0 “very unpleasant” to 10 “very pleasant”, 5 being “neutral”).
(§5) This procedure was repeated for each of the 9 stimuli. A session lasted approximately 45 min including a debriefing at the end of the test to ensure understanding of the sense of the signal variations. The experiment was repeated 12 times per subject, meaning that the data are composed of 6 data sets per subject and per product and 12 data sets for the Evian product per subject. Thus, the database consists of 432 samples.
(§6) The effect of the taste on the hedonic and intensity scores was analyzed by an analysis of variance (ANOVA) including the product effect, the subject effect and the product-subject interaction. The subject effect was fixed because there were only 4 subjects and the results could only be applied to a particular schema. The differences were considered to be significant at a level of 0.05.

[2] = system: four non-smoking volunteers (2 men and 2 women); experiment: Hedonic score, 11-point scale (0 very unpleasant to 10 very pleasant, 5 neutral); type: in vivo, human
Method: as §1, §2, §3, §4, §5, §6

subject 3 = experiment: Skin blood microcirculation (SKBF) response to taste stimuli, PCA sensory space (ESRP); type: in vivo, human; conditions: concentration 4
From the text: A Periflux PF 5010 (Perimed AB, Sweden) system was chosen, which enables non-invasive monitoring of blood perfusion in the capillaries, arterioles and venules.
The unit of blood perfusion is arbitrary and corresponds to the product of the mean rate of displacement of the red blood cells by their concentration. The system Periflux PF 5010 has a 780 nm, 1 mm diameter laser beam without thermal effect. An optical fiber probe PR407 is used. The low-energy laser beam is transmitted by the probe to the tissue. A portion of the light reflects off the static structures and another portion of the light reflects off the moving blood cells. When the light reflects off a moving cell, the wavelength is modified, which corresponds to the Doppler effect. The scattered light collected by the optical fiber is used to calculate the perfusion value. The measurement is expressed in perfusion units (PU). Recording was carried out on the pad of the index finger of the non-dominant hand, due to the high level of vascularization of this zone. The perfusion signals were recorded by an 8-channel PowerLab PL35088/35 acquisition system; the data were collected at a frequency of 1 kHz and analyzed by the LabChart® software (AD instruments Ltd, United Kingdom).
. Then, the peak was analyzed manually by selecting the whole of the peak and analyzing it with the LabChart® software (FIG. 1).
Several shape parameters were extracted from the signal (i.e. amplitude, duration, gradient). […]
The SKBF responses were analyzed individually by one-way ANOVA (product effect), the subjects having their own “preferential channel” (Lacey, J. I., Bateman, D. E. & VanLEHN, R., 1953, Autonomic response specificity: An experimental study. Psychosomatic Medicine, 15, 8-21). […]

[3] = cited from earlier work; for detection threshold concentration of the basic taste: literature (Purves 2005; Robinson 2005); for detection threshold: representative compound of a primary taste

Row | SMILES | intensity score ([1]; concentration 1) | intensity score ([1]; concentration 2) | intensity score ([1]; concentration 4) | hedonic score ([2]; concentration 4 (highest)) | SKBF disturbance (signal width, area of the peak; ANOVA) (subject 3) | detection threshold concentration of the basic taste [3] | detection threshold [3] [g/L] | hedonic score ([2]; each of the NaCl concentrations (one value given))
1 | O=C(O)CC(O)(CC(=O)O)C(=O)O [Citric acid, citric acid] | 1.2±1.5 | 1.0±1.0 | 8.4±1.2 | 3.3±2.4 | significantly stronger disturbance than the others | approximately 2 mmol·l^−1 | 0.384 to 0.5 | 
2 | [Cl-].[Na+] [NaCl, sodium chloride] |  |  | 8.6±1.0 |  | significantly stronger disturbance than the others | approximately 10 mmol·l^−1 | 0.584 | 1.3±0.9
